Experiment [1] has as its system HPAC (homozygous mutant KRAS G12D human pancreatic cell line). Description: KRAS 3D-Cell Proliferation Assay, HPAC (Example 503). It counts as cell-based. The settings on record: Homo sapiens, HPAC, 168 h, HPAC 3D culture, 7 days, CellTiter-Glo 3D; read-out: Prolif HPAC 3D ATP IC50. The method, boiled down:
(§1)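 IC50s come from a 4-parameter Hill fit of luminescence (CellTiter-Glo 3D) normalized between DMSO (0%) and 1 μM staurosporine (100%). Cells in low-attachment 3D culture, RPMI-1640 with 10% FBS, received serial compound dilutions (0.3% DMSO) after overnight and were incubated 7 days at 37 °C.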
(In general: ATP-based viability assays read luminescence as a measure of living cells.)

Experiment [2] deals with H1975 (KRAS wild type human lung adenocarcinoma cell line). The experiment in a line: KRAS 3D-Cell Proliferation Assay, H1975 (Example 503). It counts as cell-based. The settings on record: Homo sapiens, NCI-H1975, 168 h, H1975 3D culture, 7 days, CellTiter-Glo 3D; read-out: Prolif H1975 3D ATP IC50. The method, boiled down:
as §1

SMILES strings stand for the structures. pIC50: −log10 of the molar value.

Turning to `Cc1nc(N)cc(-c2nc3c4c(nc(OCC5(CN6C[C@@H](C)O[C@@H](C)C6)CC5)nc4c2F)N2C[C@H]4CC[C@H](N4)[C@H]2[C@H](C)O3)c1C(F)(F)F` [Compound 218, 4-((5S,5aS,6S,9R)-12-((1-(((2R,6S)-2,6-Dimethylmorpholino)methyl)cyclopropyl)methoxy)-1-fluoro-5-methyl-5a,6,7,8,9,10-hexahydro-5H-4-oxa-3,10a,11,13,14-pentaaza-6,9-methanonaphtho[1,8-ab]heptalen-2-yl)-6-methyl-5-(trifluoromethyl)pyridin-2-amine], the pIC50 (as a rule, −log10 of the IC50, conventionally taken in molar units) in experiment [1] was 8.87; in experiment [2] it was 6.42.

As to `Cc1nc(N)c(F)c(-c2nc3c4c(nc(OCC5(CN6CCOCC6)CC5)nc4c2F)N2C[C@H]4CC[C@H](N4)[C@H]2[C@H](C)O3)c1C(F)(F)F` [Compound 219, 3-Fluoro-4-((5S,5aS,6S,9R)-1-fluoro-5-methyl-12-((1-(morpholinomethyl)cyclopropyl)methoxy)-5a,6,7,8,9,10-hexahydro-5H-4-oxa-3,10a,11,13,14-pentaaza-6,9-methanonaphtho[1,8-ab]heptalen-2-yl)-6-methyl-5-(trifluoromethyl)pyridin-2-amine], the pIC50 in experiment [1] was 8.44; in experiment [2] it was 5.08.

As for `Cc1nc(N)c(F)c(-c2nc3c4c(nc(OCC56CCN5CC(F)(F)C6)nc4c2F)N2C[C@H]4CC[C@H](N4)[C@H]2[C@H](C)O3)c1C(F)(F)F` (stereo partly drawn) [Compound 220, 4-((5S,5aS,6S,9R)-12-((3,3-Difluoro-1-azabicyclo[3.2.0]heptan-5-yl)methoxy)-1-fluoro-5-methyl-5a,6,7,8,9,10-hexahydro-5H-4-oxa-3,10a,11,13,14-pentaaza-6,9-methanonaphtho[1,8-ab]heptalene-2-yl)-3-fluoro-6-methyl-5-(trifluoromethyl)pyridin-2-amine], the negative logarithm of the IC50 (pIC50) is 7.93 in experiment [1] and 4.70 in experiment [2].

Turning to `Cc1nc(N)c(F)c(-c2nc3c4c(nc(OCC5(CN6C[C@@H]7C[C@H]6CO7)CC5)nc4c2F)N2C[C@H]4CC[C@H](N4)[C@H]2[C@H](C)O3)c1C(F)(F)F` [Compound 222, 4-((5S,5aS,6S,9R)-12-((1-(((1S,4S)-2-Oxa-5-azabicyclo[2.2.1]heptan-5-yl)methyl)cyclopropyl)methoxy)-1-fluoro-5-methyl-5a,6,7,8,9,10-hexahydro-5H-4-oxa-3,10a,11,13,14-pentaaza-6,9-methanonaphtho[1,8-ab]heptalene-2-yl)-3-fluoro-6-methyl-5-(trifluoromethyl)pyridin-2-amine], the figures for the negative logarithm of the IC50 (pIC50) in experiment [1] and in experiment [2] were 8.24 and 5.83, respectively.

Take `Cc1nc(N)c(F)c(-c2nc3c4c(nc(OCC5(CN6C[C@H]7C[C@@H]6CO7)CC5)nc4c2F)N2C[C@H]4CC[C@H](N4)[C@H]2[C@H](C)O3)c1C(F)(F)F` [Compound 223, 4-((5S,5aS,6S,9R)-12-((1-(((1R,4R)-2-Oxa-5-azabicyclo[2.2.1]heptan-5-yl)methyl)cyclopropyl)methoxy)-1-fluoro-5-methyl-5a,6,7,8,9,10-hexahydro-5H-4-oxa-3,10a,11,13,14-pentaaza-6,9-methanonaphtho[1,8-ab]heptalene-2-yl)-3-fluoro-6-methyl-5-(trifluoromethyl)pyridin-2-amine]: the pIC50 in experiment [1] was 8.19; in experiment [2], 5.91.

As to `Cc1cc(N)c(F)c(-c2nc3c4c(nc(OC[C@@]56CCCN5CC5(CC5(F)F)C6)nc4c2F)N2C[C@H]4CC[C@H](N4)[C@H]2[C@H](C)O3)c1C(F)(F)F` (stereo partly drawn) [Compound 227, 3-((5S,5aS,6S,9R)-12-(((7a′S)-2,2-Difluorodihydro-1′H,3′H-spiro[cyclopropane-1,2′-pyrrolizin]-7a′(5′H)-yl)methoxy)-1-fluoro-5-methyl-5a,6,7,8,9,10-hexahydro-5H-4-oxa-3,10a,11,13,14-pentaaza[6,9]methanonaphtho[1,8-ab]heptalene-2-yl)-2-fluoro-5-methyl-4-(trifluoromethyl)aniline], the figures for the pIC50 in experiment [1] and in experiment [2] were 9.29 and 6.17, respectively.

Consider `Cc1c(F)c(N)c(F)c(-c2nc3c4c(nc(OC[C@@H]5C[C@@H](F)CN5C)nc4c2F)N2C[C@H]4CC[C@H](N4)[C@H]2[C@H](C)O3)c1C(F)(F)F` [Compound 228, 2,6-Difluoro-3-((5S,5aS,6S,9R)-1-fluoro-12-(((2S,4R)-4-fluoro-1-methylpyrrolidin-2-yl)methoxy)-5-methyl-5a,6,7,8,9,10-hexahydro-5H-4-oxa-3,10a,11,13,14-pentaaza-6,9-methanonaphtho[1,8-ab]heptalen-2-yl)-5-methyl-4-(trifluoromethyl)aniline], for which the pIC50 is 5.70 in experiment [1] and 4.70 in experiment [2].

Regarding `Cc1c(F)c(N)c(F)c(-c2nc3c4c(nc(OC[C@@]56CCCN5C/C(=C\F)C6)nc4c2F)N2C[C@H]4CC[C@H](N4)[C@H]2[C@H](C)O3)c1C(F)(F)F` [Compound 229, 2,6-Difluoro-3-((5S,5aS,6S,9R)-1-fluoro-12-(((S,Z)-2-(fluoromethylene)tetrahydro-1H-pyrrolizin-7a(5H)-yl)methoxy)-5-methyl-5a,6,7,8,9,10-hexahydro-5H-4-oxa-3,10a,11,13,14-pentaaza-6,9-methanonaphtho[1,8-ab]heptalene-2-yl)-5-methyl-4-(trifluoromethyl)aniline], the pIC50 was 8.74 in experiment [1] and 6.19 in experiment [2].

On to `Cc1cc(N)cc(-c2nc3c4c(nc(OC[C@@H]5CC[C@H]6COCCN65)nc4c2F)N2C[C@H]4CC[C@H](N4)[C@H]2[C@H](C)O3)c1CC(F)F` [Compound 230, 4-(2,2-Difluoroethyl)-3-((5S,5aS,6S,9R)-1-fluoro-12-(((6S,8aS)-hexahydro-1H-pyrrolo[2,1-c][1,4]oxazin-6-yl)methoxy)-5-methyl-5a,6,7,8,9,10-hexahydro-5H-4-oxa-3,10a,11,13,14-pentaaza-6,9-methanonaphtho[1,8-ab]heptalen-2-yl)-5-methylaniline], for which the pIC50 was 7.55 in experiment [1] and 5.23 in experiment [2].

`Cc1cc(N)c(F)c(-c2nc3c4c(nc(OC[C@@H]5CC[C@H]6COCCN65)nc4c2F)N2C[C@H]4CC[C@H](N4)[C@H]2[C@H](C)O3)c1CC(F)F` [Compound 231, 4-(2,2-Difluoroethyl)-2-fluoro-3-((5S,5aS,6S,9R)-1-fluoro-12-(((6S,8aS)-hexahydro-1H-pyrrolo[2,1-c][1,4]oxazin-6-yl)methoxy)-5-methyl-5a,6,7,8,9,10-hexahydro-5H-4-oxa-3,10a,11,13,14-pentaaza-6,9-methanonaphtho[1,8-ab]heptalen-2-yl)-5-methylaniline]: the negative logarithm of the IC50 (pIC50) in experiment [1] is 7.40; in experiment [2], 4.88.

In the case of `CCc1c(F)c(N)cc(-c2nc3c4c(nc(OC[C@@H]5CC[C@H]6COCCN65)nc4c2F)N2C[C@H]4CC[C@H](N4)[C@H]2[C@H](C)O3)c1C(F)(F)F` [Compound 232, 3-Ethyl-2-fluoro-5-((5S,5aS,6S,9R)-1-fluoro-12-(((6S,8aS)-hexahydro-1H-pyrrolo[2,1-c][1,4]oxazin-6-yl)methoxy)-5-methyl-5a,6,7,8,9,10-hexahydro-5H-4-oxa-3,10a,11,13,14-pentaaza-6,9-methanonaphtho[1,8-ab]heptalen-2-yl)-4-(trifluoromethyl)aniline], the values for the pIC50 in experiment [1] and in experiment [2] were 7.11 and 4.98, respectively.

The record behind these values is patent publication US12338256B2, “Aza-tetracyclic oxazepine compounds and uses thereof” (Genentech, Inc., priority 2022, dated 2025).
